{
  "source": "ChEMBL document CHEMBL1129930",
  "about": "“Analogues of methotrexate in rheumatoid arthritis. 2. Effects of 5-deazaaminopterin, 5,10-dideazaaminopterin, and analogues on type II collagen-induced arthritis in mice” (J Med Chem, 1997)",
  "type_in_all_cases": "functional",
  "key": {"[1]": {"system": "Mus musculus", "assay": "Incidence of disease (mouse type II collagen) was scored as the percentage of animals within each experimental group that exhibited joint or limb inflammation on day 37 at intraperitoneal dose of 0.047 mg/kg (deaths observed at 1.5 mg/kg)"}, "[2]": {"system": "Mus musculus", "assay": "Incidence of disease (mouse type II collagen) was scored as the percentage of animals within each experimental group that exhibited joint or limb inflammation on day 44 at intraperitoneal dose of 0.024 mg/kg (deaths observed at 1.5 mg/kg)"}, "[3]": {"system": "Mus musculus", "assay": "Incidence of disease (mouse type II collagen) was scored as the percentage of animals within each experimental group that exhibited joint or limb inflammation on day 44 at intraperitoneal dose of 0.38 mg/kg (deaths observed at 1.5 mg/kg)"}, "[4]": {"system": "Mus musculus", "assay": "Tested for antiinflammatory activity on mouse type II collagen arthritis as Paw swelling of all animals in each group on day 30 at intraperitoneal dose of 0.75 mg/kg"}, "[5]": {"system": "Mus musculus", "assay": "Incidence of disease (mouse type II collagen) was scored as the percentage of animals within each experimental group that exhibited joint or limb inflammation on day 37 at intraperitoneal dose of 0.75 mg/kg (deaths observed at 1.5 mg/kg)"}, "[6]": {"system": "Mus musculus", "assay": "Incidence of disease (mouse type II collagen) was scored as the percentage of animals within each experimental group that exhibited joint or limb inflammation on day 44 at intraperitoneal dose of 0.094 mg/kg (deaths observed at 1.5 mg/kg)"}, "[7]": {"system": "Mus musculus", "assay": "Tested for antiinflammatory activity on mouse type II collagen arthritis as Paw swelling of all animals in each group on day 44 at intraperitoneal dose of 0.38 mg/kg"}, "[8]": {"system": "Mus musculus", "assay": "Tested for antiinflammatory activity on mouse type II collagen arthritis as Paw swelling of all animals in each group on day 23 at intraperitoneal dose of 0.094 mg/kg"}, "[9]": {"system": "Mus musculus", "assay": "Tested for antiinflammatory activity on mouse type II collagen arthritis as Paw swelling of all animals in each group on day 37 at intraperitoneal dose of 0.094 mg/kg"}, "[10]": {"system": "Mus musculus", "assay": "Incidence of disease (mouse type II collagen) was scored as the percentage of animals within each experimental group that exhibited joint or limb inflammation on day 37 at intraperitoneal dose of 0.38 mg/kg (deaths observed at 1.5 mg/kg)"}, "[11]": {"system": "Mus musculus", "assay": "Incidence of disease (mouse type II collagen) was scored as the percentage of animals within each experimental group that exhibited joint or limb inflammation on day 37 at intraperitoneal dose of 0.094 mg/kg (deaths observed at 1.5 mg/kg)"}, "[12]": {"system": "Mus musculus", "assay": "Tested for antiinflammatory activity on mouse type II collagen arthritis as Paw swelling of all animals in each group on day 30 at intraperitoneal dose of 0.19 mg/kg"}, "[13]": {"system": "Mus musculus", "assay": "Tested for antiinflammatory activity on mouse type II collagen arthritis as Paw swelling of all animals in each group on day 37 at intraperitoneal dose of 0.19 mg/kg"}, "[14]": {"system": "Mus musculus", "assay": "Tested for antiinflammatory activity on mouse type II collagen arthritis as Paw swelling of all animals in each group on day 37 at intraperitoneal dose of 0.38 mg/kg"}, "[15]": {"system": "Mus musculus", "assay": "Incidence of disease (mouse type II collagen) was scored as the percentage of animals within each experimental group that exhibited joint or limb inflammation on day 23 at intraperitoneal dose of 0.38 mg/kg (deaths observed at 1.5 mg/kg)"}, "[16]": {"system": "Mus musculus", "assay": "Tested for antiinflammatory activity on mouse type II collagen arthritis as Paw swelling of all animals in each group on day 44 at intraperitoneal dose of 0.75 mg/kg"}},
  "data": [
    {"smiles": "CCc1c(CN(C)c2ccc(C(=O)NC(CCC(=O)O)C(=O)O)cc2)cnc2nc(N)nc(N)c12", "note": "(stereo unspecified)", "values": [
      {"measurement": "Animals", "setting": "[1]", "result": 50, "unit": "%"},
      {"measurement": "Animals", "setting": "[2]", "result": 25, "unit": "%"},
      {"measurement": "Animals", "setting": "[3]", "result": 0, "unit": "%"},
      {"measurement": "Paw swelling", "setting": "[4]", "result": 2.2, "unit": "mm"},
      {"measurement": "Animals", "setting": "[5]", "result": 14, "unit": "%"},
      {"measurement": "Animals", "setting": "[6]", "result": 25, "unit": "%"},
      {"measurement": "Paw swelling", "setting": "[7]", "result": 2.15, "unit": "mm"},
      {"measurement": "Paw swelling", "setting": "[8]", "result": 2.15, "unit": "mm"},
      {"measurement": "Paw swelling", "setting": "[9]", "result": 2.2, "unit": "mm"},
      {"measurement": "Animals", "setting": "[10]", "result": 0, "unit": "%"},
      {"measurement": "Animals", "setting": "[11]", "result": 25, "unit": "%"},
      {"measurement": "Paw swelling", "setting": "[12]", "result": 2.14, "unit": "mm"},
      {"measurement": "Paw swelling", "setting": "[13]", "result": 2.17, "unit": "mm"},
      {"measurement": "Paw swelling", "setting": "[14]", "result": 2.17, "unit": "mm"},
      {"measurement": "Animals", "setting": "[15]", "result": 0, "unit": "%"},
      {"measurement": "Paw swelling", "setting": "[16]", "result": 2.18, "unit": "mm"}
    ]}
  ]
}
